{"source": "paper PMC8948292", "about": "“Combining PEGylated mito-atovaquone with MCT and Krebs cycle redox inhibitors as a potential strategy to abrogate tumor cell proliferation” (Scientific Reports, 2022)", "key": {"[1]": {"tested_on": "MiaPaCa-2 cells", "assay": "Intracellular oxidants: HPLC of hydroethidine (HE) oxidation products", "format": "cell-based, human", "procedure": "Hydroethidine (HE) or dihydroethidium was used as a fluorogenic probe to assess the cellular generation of superoxide and other peroxidatic oxidants[36],[37]. Cells were treated for 24 h with Mito-PEG5-ATO alone or in combination with AZD-3965 or CPI-613, followed by 1 h incubation with HE (10 µM). Cells were harvested and the cell pellet stored at − 80 °C until the day of high-performance liquid chromatography (HPLC) analysis. Sample preparation and HPLC analysis were performed as previously reported[32],[36]. 2-OH-E^+ was used as a specific marker for superoxide, and E^+-E^+ was used as a specific marker for intracellular one-electron oxidants[36],[37].\nHE was purchased from Invitrogen (Carlsbad, CA). Stock solutions (20 mM and 5 mM, respectively) were prepared in deoxygenated DMSO (dimethyl sulfoxide) and stored at − 80 °C until use. Ethidium cation (bromide salt) was purchased from Sigma-Aldrich. The hydroxylated oxidation products from HE (2-OH-E^+) were prepared by reacting the probes with Fremy’s salt as previously described in detail[70],[71]. The dimeric products were prepared by reacting the probes with excess potassium ferricyanide, as detailed elsewhere. Synthesized standards of all oxidation products of HE were purified by HPLC. HPLC-based measurements of HE and its oxidation products were performed using an Agilent 1100 system equipped with absorption and fluorescence detectors and refrigerated autosampler (4 °C). The samples (50 µL) were injected into a reverse phase column (Phenomenex, Kinetex C18, 100 mm × 4.6 mm, 2.6 µm) equilibrated with 20% acetonitrile and 80% water containing 0.1% trifluoroacetic acid. The compounds were eluted by increasing the content of acetonitrile from 20 to 56% over 4.5 min at a flow rate of 1.5 mL/min. The absorption detector was used to measure 3,8-diamino-6-phenylphenanthridine (at 290 nm; retention time: 2.5 min), HE-E^+ (at 290 nm; retention time: 4.1 min), E^+-E^+ (at 290 nm; retention time: 4.3 min), and HE (at 370 nm; retention time: 1.6 min). A fluorescence detector (initial excitation at 358 nm and emission at 440 nm) was used to monitor HE (when present at low concentrations). At 2.3 min after injection, the fluorescence parameters were changed (excitation at 490 nm and emission at 567 nm) for sensitive detection of 2-OH-E^+ (retention time: 3.2 min) and E^+ (retention time: 3.3 min)."}, "[2]": {"tested_on": "MiaPaCa-2 cells", "assay": "Cell proliferation (cell confluence), IncuCyte Live-Cell Analysis System", "format": "cell-based, human", "details": "for IC50: Homo sapiens; for Cell confluence (% of control): control ~90% confluence", "how_it_was_run": "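MiaPaCa-2 cells in DMEM with 10% FBS, plated at 1,000 cells/well in triplicate and adhered overnight, then treated with Mito-PEG-ATO analogs. Confluence imaged label-free over several days, increase in percent confluence serving as proliferation surrogate.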"}, "[3]": {"molecular_target": "mitochondrial complex III (MiaPaCa-2 cells) (Homo sapiens, UniProt P00156)", "sequence (P00156 whole entry)": "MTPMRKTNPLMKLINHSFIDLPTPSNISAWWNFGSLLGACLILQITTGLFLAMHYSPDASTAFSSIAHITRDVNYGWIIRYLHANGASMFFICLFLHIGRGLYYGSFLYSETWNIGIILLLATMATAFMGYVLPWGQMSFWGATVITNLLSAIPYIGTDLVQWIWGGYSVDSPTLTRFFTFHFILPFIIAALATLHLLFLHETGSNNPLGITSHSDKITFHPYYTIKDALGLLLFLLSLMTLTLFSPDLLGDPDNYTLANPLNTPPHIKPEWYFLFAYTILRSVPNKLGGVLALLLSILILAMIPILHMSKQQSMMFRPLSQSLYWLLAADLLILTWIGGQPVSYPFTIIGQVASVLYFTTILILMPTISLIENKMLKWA", "sequence (P47985 whole entry partner)": "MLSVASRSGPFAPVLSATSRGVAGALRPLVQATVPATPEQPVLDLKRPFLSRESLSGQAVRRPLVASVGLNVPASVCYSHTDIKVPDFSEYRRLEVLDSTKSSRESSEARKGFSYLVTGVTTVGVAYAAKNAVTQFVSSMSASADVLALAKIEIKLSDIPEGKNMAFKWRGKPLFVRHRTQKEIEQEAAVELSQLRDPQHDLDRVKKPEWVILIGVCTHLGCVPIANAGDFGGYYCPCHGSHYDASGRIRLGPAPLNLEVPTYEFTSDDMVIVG", "assay": "Complex III-dependent oxygen consumption in permeabilized cells, Seahorse XF-96", "format": "cell-based", "how_it_was_run": "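MiaPaCa-2 cells were treated 24 h with Mito-PEG-ATO analogs, and OCR was read on a Seahorse XF-96; basal respiration was taken in intact cells. For complex I, permeabilized cells received 10 mM pyruvate, 1.5 mM malate and 10 mM malonate; for complex III, 0.5 mM duroquinol, 1 µM rotenone and 10 mM malonate, both in mannitol/sucrose buffer. IC50 values were derived from the OCR data.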"}}, "note": "Read-outs that look alike come from different tables or passages of the source.", "data": [{"smiles": "Cc1[nH]nc(C(F)(F)F)c1Cc1sc2c(c1C(=O)N1C[C@](C)(O)CO1)c(=O)n(C)c(=O)n2C(C)C", "note": "[AZD-3965]", "values": [{"measurement": "Intracellular oxidant-induced HE-derived products, in combination with Mito-PEG5-ATO", "setting": "[1]; 24 h, with Mito-PEG5-ATO 0.05 µM, AZD-3965 200 µM or CPI-613 200 µM", "value": "modest and additive increase"}, {"measurement": "IC50", "setting": "[2]; MIA PaCa-2, read-out: IC50 (cell proliferation) without Mito-PEG5-ATO", "value": 278000, "unit": "nM"}, {"measurement": "Inhibition of cell proliferation in combination with Mito-PEG5-ATO (combination index)", "setting": "[2]; MiaPaCa-2 cells, combined with Mito-PEG5-ATO", "value": "synergistic"}, {"measurement": "% changes of IC50 with vs without Mito-PEG5-ATO", "setting": "[2]; MiaPaCa-2 cells, heat map Fig. 7d", "value": 52.5, "unit": "%"}, {"measurement": "Effect on the decrease in complex III-induced oxygen consumption induced by Mito-PEG5-ATO", "setting": "[3]; MiaPaCa-2 cells, with Mito-PEG5-ATO", "value": "Neither AZD-3965 nor V-9302 significantly affected"}]}, {"smiles": "O=C1C(OCCOCCOCCOCCOCC[P+](c2ccccc2)(c2ccccc2)c2ccccc2)=C([C@H]2CC[C@H](c3ccc(Cl)cc3)CC2)C(=O)c2ccccc21.[Br-]", "note": "[Mito-PEG5-ATO, [14-((3-(trans-4-(4-chlorophenyl)cyclohexyl)-1,4-dioxo-1,4-dihydronaphthalen-2-yl)oxy)-3,6,9,12-tetraoxatetradecyl]triphenylphosphonium bromide]", "values": [{"measurement": "HE oxidation products 2-OH-E+, E+ and E+-E+", "setting": "[1]; 24 h treatment, then HE 10 µM 1 h", "value": "slight but significant increase"}, {"measurement": "IC50", "setting": "[2]; MIA PaCa-2, read-out: IC50, antiproliferative", "value": 38, "unit": "nM"}, {"measurement": "Cell confluence (% of control)", "setting": "[2]; MiaPaCa-2 cells, 0.003 µM", "value": "94.98 % of control"}, {"measurement": "Cell confluence (% of control)", "setting": "[2]; MiaPaCa-2 cells, 0.01 µM", "value": "93.81 % of control"}, {"measurement": "Cell confluence (% of control)", "setting": "[2]; MiaPaCa-2 cells, 0.03 µM", "value": "74.87 % of control"}, {"measurement": "Cell confluence (% of control)", "setting": "[2]; MiaPaCa-2 cells, 0.05 µM", "value": "41.88 % of control"}, {"measurement": "Cell confluence (% of control)", "setting": "[2]; MiaPaCa-2 cells, 0.1 µM", "value": "7.64 % of control"}, {"measurement": "Cell confluence (% of control)", "setting": "[2]; MiaPaCa-2 cells, 0.2 µM", "value": "4.52 % of control"}, {"measurement": "Cell confluence (% of control)", "setting": "[2]; MiaPaCa-2 cells, 0.3 µM", "value": "4.07 % of control"}, {"measurement": "Cell confluence (% of control)", "setting": "[2]; MiaPaCa-2 cells, 0.5 µM", "value": "3.75 % of control"}, {"measurement": "Cell confluence (% of control)", "setting": "[2]; MiaPaCa-2 cells, 1 µM", "value": "3.53 % of control"}, {"measurement": "Cell confluence (% of control)", "setting": "[2]; MiaPaCa-2 cells, 3 µM", "value": "2.64 % of control"}, {"measurement": "Cell confluence (% of control)", "setting": "[2]; MiaPaCa-2 cells, 10 µM", "value": "2.40 % of control"}, {"measurement": "Complex III activity (OCR, % of control)", "setting": "[3]; 0.003 µM", "value": "94.9 % of control"}, {"measurement": "Complex III activity (OCR, % of control)", "setting": "[3]; 0.01 µM", "value": "94.3 % of control"}, {"measurement": "Complex III activity (OCR, % of control)", "setting": "[3]; 0.03 µM", "value": "84.2 % of control"}, {"measurement": "Complex III activity (OCR, % of control)", "setting": "[3]; 0.05 µM", "value": "89.9 % of control"}, {"measurement": "Complex III activity (OCR, % of control)", "setting": "[3]; 0.075 µM", "value": "89.1 % of control"}, {"measurement": "Complex III activity (OCR, % of control)", "setting": "[3]; 0.1 µM", "value": "87.5 % of control"}, {"measurement": "Complex III activity (OCR, % of control)", "setting": "[3]; 0.3 µM", "value": "61.6 % of control"}, {"measurement": "Complex III activity (OCR, % of control)", "setting": "[3]; 0.5 µM", "value": "38.4 % of control"}, {"measurement": "Complex III activity (OCR, % of control)", "setting": "[3]; 1 µM", "value": "17.8 % of control"}, {"measurement": "Complex III activity (OCR, % of control)", "setting": "[3]; 3 µM", "value": "8.0 % of control"}, {"measurement": "IC50", "setting": "[3]; MiaPaCa-2 cells, 24 h treatment, antimycin A-inhibitable OCR, read-out: IC50, complex III-induced oxygen consumption (Complex III activity)", "value": 390, "unit": "nM"}]}]}
